Among the data in a melting point compilation (Tetko et al.; mined from patent text by program, amines drawn as free bases though some values may be those of a salt) are melting point values, retold here.

Each structure is given as a SMILES string. Bounds are passed on as bounds.

A word on the melting point: it is the temperature, or range, at which the solid turns liquid.

`COc1cccc2c(=O)c(C(=O)C3CCCCC3)c[nH]c12` displayed a melting point of 168 to 170 °C. The figure for `O=C(NC1CCN(CCc2ccccc2)CC1)c1c[nH]c2ccc(F)cc12` is 238 to 240 °C. To `Oc1ccc2c(c1)CCC2n1cc[nH]c1=S` (centres undefined) belongs 208 to 209 °C; to `C=CCN1CCN(C(C#CSc2ccccc2)=Nc2ccc(OC)cc2)CC1`, 75 °C. To `O=C1N(Cc2ccccn2)c2ccccc2C12COc1c2ccc2c1OCCO2` (centres undefined) belongs 205 to 206 °C. Consider `CN(C)CCOc1cc(C(=O)N2CCC(N(C)CCc3ccccc3)CC2)ccc1-n1cncn1`, for which the melting point lay within 83 to 85 °C.

`CCCCCCCCCCCCCCOc1ccc(CC(=O)Cl)cc1`: the melting point was in the range of 78 to 80 °C. The figure for `O=C(O)c1ccn2c1CSC2c1cccnc1` (single isomer, unassigned; (+)) is 154 °C. As to `CCOc1cc(F)ccc1N1CCN(Cc2ccc(CNC(C)=O)cc2)CC1`, the melting point is 108 to 109 °C. The compound `O=C(O)c1ccc(-c2cnc3c(c2)N(Cc2ccccc2)C(=O)CN3)cc1` came in with a melting point of more than 200 °C. Compound `Cn1nnc(-c2ccc(C=Cc3ccc(-c4nc5ccccc5o4)cc3)cc2)c1C#N` registered a melting point of 264 to 266 °C.

In turn, `CC(=O)NC1CCN(c2cccc(Cl)n2)CC1` came in with a melting point of 153 to 155 °C. The figure for `NS(=O)(=O)c1ccccc1OC(F)(F)C(F)F` is 117 to 119 °C; for `CCCc1nc2cc(C(=O)c3ccccc3)ccc2[nH]1` it is 131 to 132 °C. To `CCN(C)c1nc2ccccc2n2cnc(-c3nc(C4CC4)no3)c12` belongs 96 to 97 °C; to `Cn1nc(C(F)(F)F)cc1Oc1cc(C#N)cc(-c2cc(C(F)(F)F)nn2C)n1`, 164 to 165 °C; to `N#Cc1c(O)nc2ccc(Cl)cc2c1O`, 275 to 277 °C. In turn, `CCOC(=O)Cn1c(C(=O)O)cc2cc(Cl)ccc21` displayed a melting point of 198 to 200 °C.

The compound `CC1CC(=O)NN=C1c1ccc(NC(=O)OCc2cccc(Cl)c2)cc1` (centres undefined) yielded a melting point of 165 to 166 °C. To `COc1cc(COc2cc(C=O)n(-c3ccccc3)n2)ccc1OCc1nc(-c2ccccc2)oc1C` belongs 119 to 120 °C; to `CCOC(=O)Cn1c(=O)n(Cc2ccc(Cl)cc2)c(=O)c2ccccc21`, 137 °C; to `Cc1nn(-c2ccccn2)c2[nH]c3ccccc3c(=S)c12`, 252 to 253 °C. To `CN1C(=O)NC2(CCCCC2)C1=O` belongs 214 to 215 °C; to `CC(NC(=O)C(C)(Cc1c[nH]c2ccccc12)NCc1cc2ccccc2o1)c1ccn(C)c1` (centres undefined), 53 to 57 °C.

`Cc1ccc(Cl)cc1NC(=S)n1c(C)cc2ccccc21` yielded a melting point of 121 to 122 °C. The figure for `Cc1nc2ccc(F)cc2[nH]c1=O` is 258 to 260 °C; for `O=C(Nc1cccc(S(=O)(=O)NCc2cccnc2)c1)c1cnn2c(C(F)(F)F)cc(-c3ccc(C(F)(F)F)cc3)nc12` it is 257 °C. The figure for `COc1ccc(-n2c(=O)cc(C(F)(F)F)n(N)c2=O)cc1` is 176 to 178 °C. The figure for `CCOC(=O)c1cn(-c2cccc(Oc3ccc([N+](=O)[O-])cc3)c2)cn1` is 162 to 163 °C. In turn, `c1ccc(-c2ccc(Nc3ncc(-c4ccccc4)s3)nc2)cc1` yielded a melting point of 231 to 233 °C.

`CC1N=C(c2ccccc2)c2ccccc2NC1=O` (centres undefined) yielded a melting point of 160 to 162 °C. The compound `O=C1COc2ccc(NC(=O)C(=O)N3CCC(Cc4ccc(F)cc4)CC3)cc2N1` yielded a melting point of 197 to 200 °C. To `CC12CCC3C(CCC4CC(=O)CCC43CO[Si](C)(C)C(C)(C)C)C1CCC2=O` (centres undefined) belongs 130 to 132 °C; to `COc1ccc(OC(C)(C)C(=O)O)cc1OCCCc1cn(-c2ccc(C(F)(F)F)cn2)nc1C(C)C`, 106 to 107 °C. The figure for `COc1nc2cc([N+](=O)[O-])cc(Br)c2nc1OC` is 171 to 175 °C; for `CC(O)CSC(=S)Nc1ccccn1` (centres undefined) it is 78 °C.

Regarding `Nc1c(C(=O)O)cnn1-c1ccc(Cl)cc1`, the melting point is 169 to 171 °C. The figure for `O=C(C=Cc1ccccc1)Nc1ccc2ccc(Cl)nc2n1` is 263 °C; for `O=C(O)c1nc2c(=O)[nH]c3cc(C(F)(F)F)ccc3n2c1CBr` it is more than 250 °C; for `CCCCc1oc2ccc(C(=O)OC)cc2c1C(=O)c1ccc(CCN=[N+]=[N-])cc1` it is 60 to 62 °C. To `Cc1cccc(-c2nc(C)cc(NC3CCCCC3)n2)n1` belongs 59.6 to 65 °C; to `COC(=O)CCC12CCC(=O)N1C(=O)CC2`, 110 to 112 °C; to `COC(=O)C(=CN(C)C)N(C)c1cccc(-c2ccc(Cl)cc2)n1`, 101 °C.

Regarding `O=c1[nH]c2c(O)cccc2c(=O)n1CCCN1CC=C(c2ccc(Cl)cc2)CC1`, the melting point is 284 to 286 °C. As for `OCCOc1ccc2c(c1)oc1cc(Cl)ccc12`, the melting point lay within 118 to 120 °C. The figure for `CCCN(CCC)c1nsc(NC(=O)NC)c1C(N)=O` is 168 to 169 °C; for `COc1cc(Nc2nc3cccc(-c4ccc(S(=O)(=O)N(C)C)cc4)c3o2)cc(OC)c1OC` it is 230 to 233 °C.

`O=C(O)Cc1ccc(C2=CCCCC2)cc1`: the melting point was 118 to 120 °C. Turning to `C[Si](C)(C)C#Cc1c[nH]c(=O)[nH]c1=O`, the melting point was in the range of 187 to 189 °C. Take `Cc1cccc(OCC(=S)NCCNC(=S)Nc2ccccc2)c1C`: the melting point is 112 to 113 °C. The figure for `CCn1nc(C)c2c1C(=O)Nc1ccccc1N2C(=O)CN1CCN(C)CC1` is 145 to 146 °C; for `Cc1[nH]nc(C(=O)NC2CCCC2)c1NC(=O)c1cnccn1` it is 170 to 171 °C; for `O=C[C@H](OCc1ccccc1)[C@@H](OCc1ccccc1)[C@@H](O)COCc1ccccc1` it is 68 to 73 °C. To `Cn1cc(-c2cccc(C(F)(F)F)c2)c(=O)c(-c2ccccc2Cl)c1` belongs 191 to 193 °C; to `Cc1oc(-c2ccccc2)nc1COc1cccc(CSc2cccc(C(=O)O)c2)c1`, 129 to 130 °C; to `CCCC(=O)Nc1ccc(-n2cc(CCCOc3c(CC(=O)O)cccc3OC)c(C(C)C)n2)nc1`, 119 to 120 °C. The figure for `CC(C)(C)c1cc(CCc2ccccc2NC(=O)NCC(C)(C)c2ccc(F)cc2)cc(C(C)(C)C)c1O` is 179 to 180 °C; for `Cc1c(NC(=O)CC(C)(C)C)cc2c(c1C)OC(C)(C)C2c1ccccc1` (centres undefined) it is 182 to 183 °C. For the compound `CCC(O)CN1CCC(c2noc3cc(F)ccc23)CC1` (centres undefined), the melting point was in the range of 87 to 88 °C.

In turn, `CC(C)Cn1c(=O)n(C)c(=O)c2c(Br)c(C(O)c3cccnc3)sc21` (centres undefined) showed a melting point of 132 °C.

In turn, `Cc1cc(N=Nc2ccccn2)cc(C)c1-c1ccc(-c2c(C)cc(N=Nc3ccccn3)cc2C)o1` came in with a melting point of 206 to 207 °C. The figure for `COCC1(N2C(=O)NC(=O)C2=O)C=CC=C(OC2CC(F)CC2Cl)C1` (centres undefined) is 90 to 91 °C. The figure for `CNC(=O)NC(=O)N1CCN(c2ccccc2)CC1` is 198 to 200 °C; for `O=C(O)CCC(=O)NCc1ccc2c(c1)-c1[nH]nc(-c3ccsc3)c1C2` it is 235 to 236 °C; for `Cc1ccc(S(=O)(=O)Oc2ccc(S(=O)(=O)c3c(C(C)C)cn4ncccc34)cc2)cc1` it is 149 °C. As to `CCC(CC)Nc1c(C)cnc(Oc2c(C)cc(Cl)cc2C)c1N`, the melting point was 72 to 74 °C. To `CC(C)(C)c1ccc(-c2nc(Cl)c3ccccc3n2)cc1` belongs 75 to 76.5 °C; to `O=C(O)CCCCCCCCCCCCCCC(=O)ON1C(=O)CCC1=O`, 118 to 121 °C; to `NCCN1CCC(Nc2nc3ccccc3n2Cc2cccs2)CC1`, 137 °C. The figure for `CCC(CC)O[C@@H]1C=C(C(=O)OC)C[C@H](CC(O)CN=[N+]=[N-])[C@H]1NC(C)=O` (some centres undefined) is 92 to 93 °C; for `CCN(C(=O)c1ccccc1C(=O)c1ccc(Cl)cc1)[C@@H]1CCCC[C@@H]1NS(=O)(=O)c1ccc(C)cc1` (relative stereo) it is 178 to 180 °C. `COC(=O)C1=C(CF)NC(C)=C(C(=O)OC2CCCC2)C1c1cccc([N+](=O)[O-])c1C` (centres undefined) returned a melting point of 167 to 168 °C. `Cc1nc(N)nc(N)c1N=Nc1ccc(Br)cc1` came in with a melting point of 245 to 246 °C.

`Cc1[nH]cnc1CSCCNc1[nH]ccc1[N+](=O)[O-]` showed a melting point of 161 to 162 °C. The figure for `Cc1cc(/C=C/C(c2cc(Cl)cc(Cl)c2)C(F)(F)F)ccc1C(=O)O` (centres undefined) is 142 to 143 °C; for `COc1cc(NC(C)CCCN)c2nccc(C)c2c1Oc1cccc(C(F)(F)F)c1` (centres undefined) it is 128 to 131 °C; for `COc1cc(-c2nc(NCCC(=O)O)c3c(C)c(C#N)sc3n2)cc(OC)c1OC` it is 222 to 225 °C.

Compound `COc1ccc(C2OC3(CCNCC3)N3CCCCC23)cc1` (centres undefined) returned a melting point of 128 to 130 °C. To `O=C1N(CC2CCCN2)c2ccccc2C12COc1cc3c(cc12)CCO3` (centres undefined) belongs 83 to 86 °C; to `CCCn1c(=O)c2c(nc(/C=C/c3cc(OC)c(OC)c(OC)c3)n2C)n(CCC)c1=O`, 168 to 169 °C; to `COc1ccc(C(=O)Cc2ccnc(NC(=O)c3ccccc3)c2)cc1`, 136 to 139 °C. The figure for `COc1ccc(C(=O)O)cc1OC(=O)c1ccccc1` is 180 to 183 °C; for `O=C(COc1ccccc1)NC1C(=O)N2C1SCN(O)C2C(=O)OCc1ccccc1` (centres undefined) it is 184 to 186 °C.

As to `NCC=Cc1ccc(NC(=O)c2ccccc2-c2ccc(C(F)(F)F)cc2)cc1`, the melting point turned out to be 190 °C. To `CCOCc1ccc(CN(O)C(N)=O)o1` belongs 80.5 °C; to `CC1=CC(NC(=O)OC(C)(C)C)C(C(=O)O)CC1` (centres undefined), 132 to 136 °C.

Compound `O=c1oc(=O)n(Cc2ccco2)c2ccccc12` returned a melting point of 131 to 133 °C.

In turn, `CNC(=O)N1Cc2ccccc2CCC1=O` came in with a melting point of 140 to 141 °C. The figure for `C=C(CO)C[C@](C)(O)[C@H]1CC[C@H]2[C@@H](O[Si](C)(C)C(C)(C)C)CCC[C@@]21C` is 95 °C.
